Laboratory results reported in US10479795B2 (Incyte Corporation, priority 2016, dated 2019).
Where a name gives a salt, the structure may show the parent alone. Read-outs that look alike come from different tables or passages of the source.

Key:
[1] = target: PI3Kγ (p110γ) Recombinant Human Protein (Homo sapiens (Human), UniProt P48736); experiment: PI3K-γ Scintillation Proximity Assay; assay type: biochemical; conditions: read-out: PI3Kγ IC50
Summary of the method: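 Recombinant human p110γ assayed at room temperature in 20 mM MOPS pH 6.7, 10 mM MgCl2, 5 mM DTT, 0.03% CHAPS, 2% DMSO, with 20 μM PIP2 and 2 μM ATP plus [γ-33P]ATP. Product captured on WGA SPA beads overnight and counted; IC50 fitted from % of solvent-control activity versus log inhibitor concentration.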

[2] = target: PI3Kδ (p110δ/p85α) Recombinant Human Protein (Homo sapiens (Human), UniProt O00329); experiment: PI3Kδ Scintillation Proximity Assay; assay type: biochemical
PI3Kδ (p110δ/p85α) Recombinant Human Protein, sequence (O00329 whole entry): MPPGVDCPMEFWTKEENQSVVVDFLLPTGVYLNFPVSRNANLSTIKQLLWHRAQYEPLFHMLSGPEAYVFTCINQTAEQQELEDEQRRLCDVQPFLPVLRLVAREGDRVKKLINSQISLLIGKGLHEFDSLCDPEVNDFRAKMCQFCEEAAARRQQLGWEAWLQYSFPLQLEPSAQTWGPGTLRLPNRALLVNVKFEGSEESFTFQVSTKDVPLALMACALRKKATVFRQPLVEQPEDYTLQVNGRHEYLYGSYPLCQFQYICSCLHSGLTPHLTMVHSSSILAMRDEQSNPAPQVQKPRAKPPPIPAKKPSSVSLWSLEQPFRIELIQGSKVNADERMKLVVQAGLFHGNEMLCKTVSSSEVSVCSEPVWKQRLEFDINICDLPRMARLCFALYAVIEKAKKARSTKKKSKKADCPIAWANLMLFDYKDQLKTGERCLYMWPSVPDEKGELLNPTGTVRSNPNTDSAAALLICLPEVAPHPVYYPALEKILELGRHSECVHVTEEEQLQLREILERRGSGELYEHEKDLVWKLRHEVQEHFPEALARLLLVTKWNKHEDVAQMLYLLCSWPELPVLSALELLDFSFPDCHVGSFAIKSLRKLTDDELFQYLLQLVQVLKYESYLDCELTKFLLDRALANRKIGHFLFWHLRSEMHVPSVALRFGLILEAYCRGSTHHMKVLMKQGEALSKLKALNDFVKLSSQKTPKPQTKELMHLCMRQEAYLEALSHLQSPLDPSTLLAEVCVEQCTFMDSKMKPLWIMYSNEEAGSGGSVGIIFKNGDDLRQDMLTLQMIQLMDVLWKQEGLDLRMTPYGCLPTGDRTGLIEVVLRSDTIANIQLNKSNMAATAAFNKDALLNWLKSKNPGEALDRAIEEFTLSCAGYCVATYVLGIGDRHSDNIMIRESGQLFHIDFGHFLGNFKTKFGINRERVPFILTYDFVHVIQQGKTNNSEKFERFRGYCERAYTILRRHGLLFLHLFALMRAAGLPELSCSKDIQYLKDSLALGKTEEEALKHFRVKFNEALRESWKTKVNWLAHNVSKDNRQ
PI3Kδ (p110δ/p85α) Recombinant Human Protein, sequence (P27986 whole entry partner): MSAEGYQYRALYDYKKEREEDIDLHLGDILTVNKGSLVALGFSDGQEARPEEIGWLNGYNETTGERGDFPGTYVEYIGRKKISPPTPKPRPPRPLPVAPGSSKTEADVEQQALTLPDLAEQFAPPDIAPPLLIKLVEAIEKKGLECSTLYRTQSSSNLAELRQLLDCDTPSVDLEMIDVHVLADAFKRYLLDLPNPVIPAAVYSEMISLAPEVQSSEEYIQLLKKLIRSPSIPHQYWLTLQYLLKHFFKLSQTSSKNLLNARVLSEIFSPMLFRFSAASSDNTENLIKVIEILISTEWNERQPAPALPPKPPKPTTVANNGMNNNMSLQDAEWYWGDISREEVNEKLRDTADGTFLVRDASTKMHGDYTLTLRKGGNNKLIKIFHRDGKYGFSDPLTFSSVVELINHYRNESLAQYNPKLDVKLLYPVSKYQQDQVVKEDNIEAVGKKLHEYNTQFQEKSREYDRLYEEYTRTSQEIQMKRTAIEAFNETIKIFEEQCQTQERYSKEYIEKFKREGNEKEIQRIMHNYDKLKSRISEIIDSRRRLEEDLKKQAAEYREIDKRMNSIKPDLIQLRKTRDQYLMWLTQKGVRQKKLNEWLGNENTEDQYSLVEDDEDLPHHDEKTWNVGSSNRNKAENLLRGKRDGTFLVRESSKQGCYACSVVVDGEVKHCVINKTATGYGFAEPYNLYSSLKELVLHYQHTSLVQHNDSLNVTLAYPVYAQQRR
Summary of the method: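 Recombinant human p110δ/p85α (3.4 nM) phosphorylates 20 μM di-octanoyl PIP2 using 2 μM ATP spiked with [γ-33P]ATP, 120 min, room temperature, pH 6.7, 2% DMSO. Product measured by scintillation proximity; IC50 from dose-response fit.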

[3] = tested on: Phosphorylated Ribosomal Protein S6 (RPS6); experiment: THP-1 RPS6 ELISA Assay; assay type: cell-based, Human; conditions: THP-1 cells, read-out: PI3Kγ_THP1_RPS6_ELISA IC50
Summary of the method: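 Serum-starved THP-1 cells were preincubated with a concentration range of compound for 2 h at 37 °C, then stimulated with 10 nM MCP-1 for 15 min. Phospho-RPS6 in lysates was quantified by ELISA at 450 nm. IC50 came from percent inhibition versus log inhibitor concentration.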

PI3Kγ (p110γ) Recombinant Human Protein, sequence (P48736 whole entry): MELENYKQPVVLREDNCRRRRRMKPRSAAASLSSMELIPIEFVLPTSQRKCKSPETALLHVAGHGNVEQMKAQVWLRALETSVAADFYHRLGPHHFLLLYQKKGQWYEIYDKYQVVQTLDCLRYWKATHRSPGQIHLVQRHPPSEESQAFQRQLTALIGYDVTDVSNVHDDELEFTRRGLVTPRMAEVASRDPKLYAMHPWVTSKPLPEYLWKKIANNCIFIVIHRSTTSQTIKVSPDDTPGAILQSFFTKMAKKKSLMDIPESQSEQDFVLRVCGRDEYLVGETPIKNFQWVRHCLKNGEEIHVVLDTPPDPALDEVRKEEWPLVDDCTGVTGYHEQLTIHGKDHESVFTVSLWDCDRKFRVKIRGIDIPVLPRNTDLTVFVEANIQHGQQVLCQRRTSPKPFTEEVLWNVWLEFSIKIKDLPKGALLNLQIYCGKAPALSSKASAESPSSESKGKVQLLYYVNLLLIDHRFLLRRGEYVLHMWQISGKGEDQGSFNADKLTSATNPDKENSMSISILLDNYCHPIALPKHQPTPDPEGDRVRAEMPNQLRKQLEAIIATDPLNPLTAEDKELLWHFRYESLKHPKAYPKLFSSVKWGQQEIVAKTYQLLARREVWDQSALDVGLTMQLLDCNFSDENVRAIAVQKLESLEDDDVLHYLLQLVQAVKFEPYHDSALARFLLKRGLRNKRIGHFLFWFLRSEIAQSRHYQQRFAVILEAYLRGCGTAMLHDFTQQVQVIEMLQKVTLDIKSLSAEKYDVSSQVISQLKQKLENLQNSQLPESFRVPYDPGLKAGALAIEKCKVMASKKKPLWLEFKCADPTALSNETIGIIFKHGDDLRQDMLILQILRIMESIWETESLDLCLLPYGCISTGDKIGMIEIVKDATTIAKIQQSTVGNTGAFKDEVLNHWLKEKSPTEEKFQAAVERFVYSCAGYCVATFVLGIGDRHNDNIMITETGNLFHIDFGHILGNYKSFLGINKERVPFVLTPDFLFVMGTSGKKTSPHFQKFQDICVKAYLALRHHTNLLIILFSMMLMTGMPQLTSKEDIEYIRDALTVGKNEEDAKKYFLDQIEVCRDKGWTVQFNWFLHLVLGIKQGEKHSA

IC50 [1] [µM] | IC50 [2] [µM] | IC50 [3] [µM] | IC50 ([3]; Homo sapiens) [µM] | SMILES
< 0.1 | 0.1 to 0.5 |  | 0.5 to 1 | N#CC12CCC(NS(=O)(=O)c3cc(-c4cnc5c(N)nc(C(F)(F)F)cn45)ccc3F)(C1)C2 [Example 396, 5-(8-Amino-6-(trifluoromethyl)imidazo[1,2-a]pyrazin-3-yl)-N-(4-cyanobicyclo[2.1.1]hexan-1-yl)-2-fluorobenzenesulfonamide trifluoroacetate salt]
< 0.1 | 0.1 to 0.5 |  | 0.1 to 0.5 | Cc1ccc(S(=O)(=O)N[C@H]2CC[C@H](O)CC2)cc1-c1cnc2c(N)c(-c3cnn(C)c3)ccn12 [Example 12, 3-[8-Amino-7-(1-methyl-1H-pyrazol-4-yl)imidazo[1,2-a]pyridin-3-yl]-N-(trans-4-hydroxycyclohexyl)-4-methylbenzenesulfonamide]
< 0.1 | 0.1 to 0.5 |  | 0.1 to 0.5 | Cc1cn2c(-c3cc(S(=O)(=O)NC45CC(C#N)(C4)C5)ccc3C)cnc2c(N)n1 [Example 264, 3-(8-Amino-6-methylimidazo[1,2-a]pyrazin-3-yl)-N-(3-cyanobicyclo[1.1.1]pentan-1-yl)-4-methylbenzenesulfonamide trifluoroacetate salt]
< 0.1 | 0.5 to 2 |  | > 1 | Cc1ccc(S(N)(=O)=O)cc1-c1cnc2c(N)ncnn12 [Example 139, 3-(4-aminoimidazo[2,1-f][1,2,4]triazin-7-yl)-4-methylbenzenesulfonamide]
< 0.1 | 0.1 to 0.5 | > 1 |  | Cc1nc(N)c2ncc(-c3ccc(F)c(S(=O)(=O)NC45CC(C#N)(C4)C5)c3)n2n1 [Example 388, 5-(4-Amino-2-methylimidazo[1,2-f][1,2,4]triazin-7-yl)-N-(3-cyanobicyclo[1.1.1]pentan-1-yl)-2-fluorobenzenesulfonamide trifluoroacetate salt]
< 0.1 | 0.5 to 2 | > 1 |  | Cc1ccc(S(=O)(=O)NC2CCC(F)(F)CC2)cc1-c1cnc2c(N)nccn12 [Example 84, 3-(8-amionimidazo[1,2-a]pyrazin-3-yl)-N-(4,4-difluorocyclohexyl)-4-methylbenzenesulfonamide]
< 0.1 | 0.1 to 0.5 |  | 0.5 to 1 | Cc1ccc(S(=O)(=O)N[C@H]2CC[C@H](CC#N)OC2)cc1-c1cnc2c(N)nc(C(=O)NC3CCC3)cn12 [Example 450, 8-amino-3-(5-(N-((3S,6R)-6-(cyanomethyl)tetrahydro-2H-pyran-3-yl)sulfamoyl)-2-methylphenyl)-N-cyclobutylimidazo[1,2-a]pyrazine-6-carboxamide trifluoroacetate salt]
< 0.1 | 0.1 to 0.5 | < 0.1 |  | Cc1cc(F)c(S(=O)(=O)N[C@H]2CC[C@](C)(O)CC2)cc1-c1cnc2c(N)nc(C(F)(F)F)nn12 [Example 412, 5-(4-Amino-2-(trifluoromethyl)imidazo[1,2-f][1,2,4]triazin-7-yl)-2-fluoro-N-((1r,4r)-4-hydroxy-4-methylcyclohexyl)-4-methylbenzenesulfonamide trifluoroacetate salt]
< 0.1 | 0.5 to 2 |  | 0.1 to 0.5 | Cc1ccc(S(=O)(=O)CC2CC(F)(F)C2)cc1-c1cnc2c(N)ncnn12 [Example 500, 7-(5-(((3,3-Difluorocyclobutyl)methyl)sulfonyl)-2-methylphenyl)imidazo[2,1-f][1,2,4]triazin-4-amine]
< 0.1 | 0.5 to 2 |  | 0.5 to 1 | Cc1ccc(S(=O)(=O)N2C(C)CCCC2CO)cc1-c1cnc2c(N)ncnn12 (stereo not drawn) [Example 157, (1-((3-(4-aminoimidazo[2,1-f][1,2,4]triazin-7-yl)-4-methylphenyl)sulfonyl)-6-methylpiperidin-2-yl)methanol]
< 0.1 | 0.1 to 0.5 |  | > 1 | Cc1ccc(-c2cnc3c(N)nccn23)cc1S(=O)(=O)N[C@H]1CC[C@H](O)CC1 [Example 41, 5-(8-Aminoimidazo[1,2-a]pyrazin-3-yl)-N-(trans-4-hydroxycyclohexyl)-2-methylbenzenesulfonamide]
< 0.1 | 0.1 to 0.5 | > 1 |  | Cc1ccc(S(=O)(=O)NC23CCC(C(N)=O)(C2)C3)cc1-c1cnc2c(N)ncnn12 [Example 110, 4-(3-(4-Aminoimidazo[1,2-f][1,2,4]triazin-7-yl)-4-methylphenylsulfonamido)bicyclo[2.1.1]hexane-1-carboxamide trifluoroacetate salt]
0.1 to 0.5 | > 2 |  | > 1 | Cc1ccc(S(=O)(=O)CCC(F)(F)F)cc1-c1cnc2c(N)ncnn12 [Example 493, 7-(2-Methyl-5-((3,3,3-trifluoropropyl)sulfonyl)phenyl)imidazo[2,1-f][1,2,4]triazin-4-amine trifluoroacetate]
< 0.1 | 0.1 to 0.5 |  | 0.5 to 1 | Cc1ccc(S(=O)(=O)N[C@H]2CC[C@H](O)CC2)cc1-c1cnc2c(N)nc(-c3cnn(C(C)(C)C#N)c3)cn12 [Example 78, 3-{8-amino-6-[1-(1-cyano-1-methylethyl)-1H-pyrazol-4-yl]imidazo[1,2-a]pyrazin-3-yl}-N-(trans-4-hydroxycyclohexyl)-4-methylbenzenesulfonamide]
< 0.1 | 0.1 to 0.5 |  | < 0.1 | Cc1ccc(S(=O)(=O)N[C@H]2CC[C@H](CC#N)OC2)cc1-c1cnc2c(N)ncnn12 [Example 183, 3-(4-aminoimidazo[2,1-f][1,2,4]triazin-7-yl)-N-((3S,6R)-6-(cyanomethyl)tetrahydro-2H-pyran-3-yl)-4-methylbenzenesulfonamide]
< 0.1 | < 0.1 |  | 0.1 to 0.5 | Cc1cn2c(-c3cc(S(=O)(=O)NC45CCC(CO)(C4)C5)ccc3C)cnc2c(N)n1 [Example 262, 3-(8-Amino-6-methylimidazo[1,2-a]pyrazin-3-yl)-N-(4-(hydroxymethyl)bicyclo[2.1.1]hexan-1-yl)-4-methylbenzenesulfonamide]
< 0.1 | 0.1 to 0.5 |  | < 0.1 | Cc1ccc(S(=O)(=O)N[C@H]2CC[C@H](CO)OC2)cc1-c1cnc2c(N)nc(C(F)(F)F)nn12 [Example 356, 3-(4-amino-2-(trifluoromethyl)imidazo[2,1-f][1,2,4]triazin-7-yl)-N-((3S,6R)-6-(hydroxymethyl)tetrahydro-2H-pyran-3-yl)-4-methylbenzenesulfonamide]
< 0.1 | 0.5 to 2 |  | 0.5 to 1 | Cc1ccc(S(=O)(=O)CC2CCOCC2)cc1-c1cnc2c(N)ncnn12 [Example 492, 7-(2-Methyl-5-(((tetrahydro-2H-pyran-4-yl)methyl)sulfonyl)phenyl)imidazo[2,1-f][1,2,4]triazin-4-amine trifluoroacetate]
< 0.1 | 0.5 to 2 | 0.1 to 0.5 |  | Cc1ccc(S(=O)(=O)NC23CC(Cn4cncn4)(C2)C3)cc1-c1cnc2c(N)ncnn12 [Example 113, N-(3-((1H-1,2,4-triazol-1-yl)methyl)bicyclo[1.1.]pentan-1-yl)-3-(4-aminoimidazo[1,2-f][1,2,4]triazin-7-yl)-4-methylbenzenesulfonamide trifluoroacetate salt]
< 0.1 | 0.5 to 2 |  | > 1 | Cc1ccc(S(=O)(=O)N2CC3C(O)C2CN3C2CC(C#N)C2)cc1-c1cnc2c(N)nc(C(F)(F)F)nn12 (stereo not drawn) [Example 354, 3-(5-((3-(4-amino-2-(trifluoromethyl)imidazo[2,1-f][1,2,4]triazin-7-yl)-4-methylphenyl)sulfonyl)-7-hydroxy-2,5-diazabicyclo[2.2.1]heptan-2-yl)cyclobutane-1-carbonitrile]

SMILES | IC50 [1] [µM] | IC50 [2] [µM] | IC50 [3] [µM] | IC50 ([3]; Homo sapiens) [µM]
C[C@]1(O)CC[C@H](NS(=O)(=O)c2cc(-c3cnc4c(N)ncnn34)ccc2F)CC1 [Example 376, 5-(4-aminoimidazo[2,1-f][1,2,4]triazin-7-yl)-2-fluoro-N-((1r,4r)-4-hydroxy-4-methylcyclohexyl)benzenesulfonamide] | < 0.1 | 0.1 to 0.5 | > 1 | 
Cc1ccc(S(=O)(=O)NC23CC(C(=O)N(C)C)(C2)C3)cc1-c1cnc2c(N)ncnn12 [Example 96, 3-(3-(4-Aminoimidazo[1,2-f][1,2,4]triazin-7-yl)-4-methylphenylsulfonamido)-N,N-dimethylbicyclo[1.1.1]pentane-1-carboxamide trifluoroacetate salt] | < 0.1 | 0.1 to 0.5 | > 1 | 
Cc1ccc(S(=O)(=O)N[C@H]2C[C@H](C#N)C2)cc1-c1cnc2c(N)ncnn12 [Example 89, 3-(4-Aminoimidazo[1,2-f][1,2,4]triazin-7-yl)-N-((1r,3r)-3-cyanocyclobutyl)-4-methylbenzenesulfonamide trifluoroacetate salt] | < 0.1 | 0.1 to 0.5 | < 0.1 | 
C[C@]1(O)CC[C@H](NS(=O)(=O)c2cc(-c3cnc4c(N)nc(-c5ccccc5F)cn34)ccc2F)CC1 [Example 421, 5-(8-amino-6-(2-fluorophenyl)imidazo[1,2-a]pyrazin-3-yl)-2-fluoro-N-((1r,4r)-4-hydroxy-4-methylcyclohexyl)benzenesulfonamide] | < 0.1 | < 0.1 | < 0.1 | 
